Reference: ChEMBL document CHEMBL1201862, “PubChem BioAssay data set” (2004)
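Exposure lasted 48 hours, with cells grown in 96-well plates and compounds tested at five concentrations. GI50 marks 50% less growth.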 Active and inactive are the calls of the source. No stated cut-off is given here; in the data, active = GI50 up to about 1.1 µM and inactive = higher.

Tests used:
Assay in all cases: NCI tumour cell line growth inhibition, 48 h
A549 = system: A549
ACHN = system: ACHN
CCRF-CEM = system: CCRF-CEM
HCT-116 = system: HCT-116
HCT-15 = system: HCT-15
HOP-92 = system: HOP-92
K562 = system: K562
M14 = system: M14
MCF7 = system: MCF7
MOLT-4 = system: MOLT-4
NCI-H460 = system: NCI-H460
OVCAR-4 = system: OVCAR-4
SF-268 = system: SF-268
SK-MEL-28 = system: SK-MEL-28
SK-MEL-5 = system: SK-MEL-5
SNB-19 = system: SNB-19
SW-620 = system: SW-620
UO-31 = system: UO-31
SF-295 = system: SF-295
Hs-578T = system: Hs-578T

Row | Structure (SMILES) | GI50 (A549) | GI50 (ACHN) | GI50 (CCRF-CEM) | GI50 (HCT-116) | GI50 (HCT-15) | GI50 (HOP-92) | GI50 (K562) | GI50 (M14) | GI50 (MCF7) | GI50 (MOLT-4) | GI50 (NCI-H460) | GI50 (OVCAR-4) | GI50 (SF-268) | GI50 (SK-MEL-28) | GI50 (SK-MEL-5) | GI50 (SNB-19) | GI50 (SW-620) | GI50 (UO-31) | GI50 (SF-295) | GI50 (Hs-578T)
1 | Clc1ccc(/C=C/c2nc(-c3ccccc3)cn3c2nc2ccccc23)cc1Cl | 59.6 µM (inactive) | 49.5 µM (inactive) | 20.1 µM (inactive) | 27.7 µM (inactive) | 34.3 µM | 70 µM (inactive) | 43.6 µM (inactive) | 56.4 µM (inactive) | 34.8 µM (inactive) | 46.9 µM (inactive) | 32.7 µM (inactive) | 40.9 µM (inactive) | 59 µM (inactive) | 65.8 µM (inactive) | 50.2 µM (inactive) | 59.6 µM (inactive) | 41.6 µM (inactive) | 58.1 µM (inactive) |  | 
2 | COC(=O)C1=C2SCc3cccc(c3)CSC3=C(C(=O)OC)SC(=C(S2)S1)S3 | > 100 µM (inactive) | > 100 µM (inactive) | > 100 µM (inactive) | > 100 µM (inactive) |  |  | > 100 µM (inactive) | 82.6 µM (inactive) | > 100 µM (inactive) | > 100 µM (inactive) | > 100 µM (inactive) | > 100 µM (inactive) |  | > 100 µM (inactive) | > 100 µM (inactive) | > 100 µM (inactive) | > 100 µM (inactive) | > 100 µM (inactive) | > 100 µM (inactive) | 
3 | Cc1ccc2[nH]c(=O)c(-c3cnc(O)nn3)c(O)c2c1 | 32 µM (inactive) | 19.7 µM (inactive) | > 100 µM (inactive) | 32.7 µM (inactive) | > 100 µM |  | 1.8 µM (inactive) | > 100 µM (inactive) | 36.9 µM (inactive) | 5.06 µM (inactive) | > 100 µM (inactive) | 17.8 µM (inactive) | > 100 µM (inactive) | > 100 µM (inactive) | 11.8 µM (inactive) |  | > 100 µM (inactive) | 16.6 µM (inactive) | 60.7 µM (inactive) | > 100 µM (inactive)
4 | CC[As](CC)SCC1OC(OC(C)=O)C(OC(C)=O)C(OC(C)=O)C1OC(C)=O (stereo not given) | 21 µM (inactive) | 17.4 µM (inactive) | 3.05 µM (inactive) | 17.1 µM (inactive) | 13.6 µM | 3.15 µM (inactive) | 4.38 µM (inactive) | 12.3 µM (inactive) |  | 16.5 µM (inactive) | 16.8 µM (inactive) | 21.9 µM (inactive) | 11.6 µM (inactive) | 4.01 µM (inactive) | 15.1 µM (inactive) | 17.9 µM (inactive) | 4.74 µM (inactive) | 16.2 µM (inactive) | 18.9 µM (inactive) | 
5 | Cc1cc2[nH]c3c(C#N)c(-c4ccccc4)c(/C=N/c4ccc(F)cc4)c(=O)n3c2cc1C | 49 µM (inactive) | > 100 µM (inactive) | > 100 µM (inactive) | > 100 µM (inactive) | > 100 µM |  |  | > 100 µM (inactive) | 86.9 µM (inactive) |  | > 100 µM (inactive) | > 100 µM (inactive) | 99.5 µM (inactive) | > 100 µM (inactive) | > 100 µM (inactive) | 0.513 µM (active) | 62.5 µM (inactive) | > 100 µM (inactive) | 64.6 µM (inactive) | 
6 | CCOc1ccc(NC(=O)C(=O)CC(=O)C2=C(C)Nc3ccccc3S2)cc1 | > 50 µM (inactive) | > 50 µM (inactive) | > 50 µM (inactive) | > 50 µM (inactive) | > 50 µM | > 50 µM (inactive) | > 50 µM (inactive) | > 50 µM (inactive) |  | > 50 µM (inactive) | > 50 µM (inactive) | > 50 µM (inactive) | > 50 µM (inactive) | > 50 µM (inactive) | > 50 µM (inactive) | > 50 µM (inactive) | > 50 µM (inactive) | > 50 µM (inactive) | > 50 µM (inactive) | 
7 | O=c1c2ccccc2[nH]c2ccc3c(Cl)n[nH]c3c12 | 15.9 µM (inactive) | 27.8 µM (inactive) | 56.9 µM (inactive) | 31.8 µM (inactive) | 35.6 µM | 38.5 µM (inactive) | 34.3 µM (inactive) | 60.1 µM (inactive) |  | 9.95 µM (inactive) | 31.8 µM (inactive) | 59.4 µM (inactive) | 50.5 µM (inactive) | 87.5 µM (inactive) | 40.9 µM (inactive) | 32.7 µM (inactive) | 36.5 µM (inactive) | 26.7 µM (inactive) | 37.2 µM (inactive) | 
8 | CC1=CCS(=O)(=O)C1C(O)C1=C(C)CCCC1(C)C (stereo not given) | 68.5 µM (inactive) | > 100 µM (inactive) | 71.3 µM (inactive) | 72.3 µM (inactive) | > 100 µM |  | 43.1 µM (inactive) | 69.2 µM (inactive) | 50.8 µM (inactive) | 51.2 µM (inactive) |  | 84.5 µM (inactive) |  | > 100 µM (inactive) | 44.4 µM (inactive) | > 100 µM (inactive) | > 100 µM (inactive) | 38.3 µM (inactive) | 22.2 µM (inactive) | 
9 | CN(C)c1ccc(/C=N/NC2=N/C(=C\c3ccco3)C(=O)N2)cc1 | > 100 µM (inactive) | > 100 µM (inactive) | > 100 µM (inactive) | > 100 µM (inactive) | > 100 µM | > 100 µM (inactive) | > 100 µM (inactive) | > 100 µM (inactive) |  | > 100 µM (inactive) | > 100 µM (inactive) |  | > 100 µM (inactive) | > 100 µM (inactive) | > 100 µM (inactive) | > 100 µM (inactive) | > 100 µM (inactive) | > 100 µM (inactive) | > 100 µM (inactive) | > 100 µM (inactive)
10 | CC1CCN(C(C)C)P(=S)(Cc2ccccc2)O1 (stereo not given) | > 100 µM (inactive) | > 100 µM (inactive) |  | 59.6 µM (inactive) | > 100 µM |  | 70.1 µM (inactive) | > 100 µM (inactive) | > 100 µM (inactive) | > 100 µM (inactive) | > 100 µM (inactive) | 84.3 µM (inactive) | > 100 µM (inactive) | 13.6 µM (inactive) | > 100 µM (inactive) | > 100 µM (inactive) | 7.93 µM (inactive) | > 100 µM (inactive) | 34 µM (inactive) | 
11 | CCN(CC)c1c(C(=O)/C=C/c2ccc(Cl)cc2)c(-c2ccccc2)nn(C)c1=O | 1.92 µM (inactive) | 1.87 µM (inactive) | 1.97 µM (inactive) | 1.67 µM (inactive) | 1.69 µM | 1.63 µM (inactive) | 2.54 µM (inactive) | 2.08 µM (inactive) |  | 2.12 µM (inactive) | 1.93 µM (inactive) | 1.66 µM (inactive) | 1.7 µM (inactive) | 1.62 µM (inactive) | 1.72 µM (inactive) | 1.93 µM (inactive) | 2.16 µM (inactive) | 1.73 µM (inactive) | 1.85 µM (inactive) | 
12 | C/C(CC(=O)CCC(=O)Nc1cccc(C(F)(F)F)c1)=N\NC(=O)NN | > 100 µM (inactive) | > 100 µM (inactive) | > 100 µM (inactive) | > 100 µM (inactive) | > 100 µM | > 100 µM (inactive) | > 100 µM (inactive) | > 100 µM (inactive) |  | > 100 µM (inactive) | > 100 µM (inactive) | > 100 µM (inactive) | > 100 µM (inactive) | > 100 µM (inactive) | > 100 µM (inactive) | > 100 µM (inactive) | > 100 µM (inactive) | > 100 µM (inactive) | > 100 µM (inactive) | 
13 | O=C(Cn1c(=O)ccn(C2OC(CO)C(O)C2F)c1=O)c1ccc(F)cc1 (stereo not given) | > 100 µM (inactive) | > 100 µM (inactive) | > 100 µM (inactive) | > 100 µM (inactive) | > 100 µM |  | > 100 µM (inactive) |  | > 100 µM (inactive) | > 100 µM (inactive) | > 100 µM (inactive) |  | > 100 µM (inactive) | > 100 µM (inactive) | > 100 µM (inactive) | > 100 µM (inactive) | > 100 µM (inactive) | > 100 µM (inactive) | > 100 µM (inactive) | > 100 µM (inactive)
14 | Clc1ccc(-c2nn3c(C45CC6CC(CC(C6)C4)C5)nnc3s2)cc1 | > 100 µM (inactive) | 69.5 µM (inactive) | > 100 µM (inactive) | 63.1 µM (inactive) | > 100 µM | > 100 µM (inactive) | > 100 µM (inactive) | > 100 µM (inactive) |  | > 100 µM (inactive) | > 100 µM (inactive) | 34.4 µM (inactive) | > 100 µM (inactive) | > 100 µM (inactive) | > 100 µM (inactive) | > 100 µM (inactive) | > 100 µM (inactive) | > 100 µM (inactive) | > 100 µM (inactive) | > 100 µM (inactive)
15 | O=c1oc2c(O)c(O)c(O)c3c(=O)oc4c(O)c(O)cc1c4c23 [FLAVELLAGIC ACID] | > 100 µM (inactive) | 73.1 µM (inactive) | 29.2 µM (inactive) | 89.9 µM (inactive) | > 100 µM | > 100 µM (inactive) | 25.6 µM (inactive) | > 100 µM (inactive) |  | 25.9 µM (inactive) | > 100 µM (inactive) | 16.2 µM (inactive) | > 100 µM (inactive) | > 100 µM (inactive) | > 100 µM (inactive) | > 100 µM (inactive) | 97.7 µM (inactive) | 38.4 µM (inactive) | 23.8 µM (inactive) | 
16 | CN1CCN(Cc2ccccc2)CC1CC#N (stereo not given) | > 100 µM (inactive) | > 100 µM (inactive) | > 100 µM (inactive) | > 100 µM (inactive) | > 100 µM |  | > 100 µM (inactive) |  | > 100 µM (inactive) | > 100 µM (inactive) | > 100 µM (inactive) | > 100 µM (inactive) | > 100 µM (inactive) | > 100 µM (inactive) | > 100 µM (inactive) | > 100 µM (inactive) | > 100 µM (inactive) | > 100 µM (inactive) | > 100 µM (inactive) | 
